ChEMBL document CHEMBL1201862, “PubChem BioAssay data set” (2004)
Calls of active or inactive are those of the source.

Key:
[1] = molecular target: T1, Endoribonuclease toxin MazF (Escherichia coli K-12, UniProt P0AE70); assay: MazF toxin RNase activators, dose response, biochemical, fluorescence, single-stranded RNA substrate, uHTS hits (AID 588481); format: functional
T1 sequence (P0AE70 whole entry): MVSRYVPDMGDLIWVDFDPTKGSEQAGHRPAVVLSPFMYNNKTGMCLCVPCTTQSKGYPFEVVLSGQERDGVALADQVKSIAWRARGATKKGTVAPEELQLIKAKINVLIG

Protein skinhead-1 = molecular target: T2, Protein skinhead-1 (Caenorhabditis elegans, UniProt P34707); format: functional
T2 sequence (P34707 whole entry): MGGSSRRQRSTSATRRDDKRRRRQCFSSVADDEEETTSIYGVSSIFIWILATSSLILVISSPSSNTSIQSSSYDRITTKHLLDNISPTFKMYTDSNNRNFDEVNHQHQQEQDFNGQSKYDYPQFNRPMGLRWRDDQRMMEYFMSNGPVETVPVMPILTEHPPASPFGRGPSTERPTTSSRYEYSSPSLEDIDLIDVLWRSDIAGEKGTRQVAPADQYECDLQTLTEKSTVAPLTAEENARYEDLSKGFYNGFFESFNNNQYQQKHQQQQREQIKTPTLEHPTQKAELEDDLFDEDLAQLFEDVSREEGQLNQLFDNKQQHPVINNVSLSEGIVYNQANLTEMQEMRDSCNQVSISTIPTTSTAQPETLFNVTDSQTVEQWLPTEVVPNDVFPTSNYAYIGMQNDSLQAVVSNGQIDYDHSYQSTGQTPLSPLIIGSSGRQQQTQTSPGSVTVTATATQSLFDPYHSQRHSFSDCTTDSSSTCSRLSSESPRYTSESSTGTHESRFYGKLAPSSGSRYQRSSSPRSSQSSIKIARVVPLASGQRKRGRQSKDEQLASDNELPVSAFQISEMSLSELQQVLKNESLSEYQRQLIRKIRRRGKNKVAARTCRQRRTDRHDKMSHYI

[2] = molecular target: T1, Endoribonuclease toxin MazF; assay: fluorescent RNA oligo signal without MazF, dose response, counter-screen for MazEF activator project, biochemical, fluorescence, single-stranded RNase substrate (AID 588502); format: functional
[3] = molecular target: 72 kDa type IV collagenase (Homo sapiens, UniProt P08253); assay: Dose Response validation of uHTS RPN11 inhibitor hits using a MMP-2 Fluorescence assay.; format: functional
[4] = molecular target: 26S proteasome non-ATPase regulatory subunit 14 (Homo sapiens, UniProt O00487); assay: inhibition of proteasome subunit RPN11 – biochemical, fluorescence polarization, uHTS hits, confirmation (AID 602368); format: functional
Prothrombin = Prothrombin (Bos taurus, UniProt P00735); assay: thrombin inhibition, dose response, biochemical, fluorescence polarization, uHTS hits (AID 602369); format: functional
Melanocortin receptor 4 = Melanocortin receptor 4 (Homo sapiens, UniProt P32245); format: functional, cell-based;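 further: Cell-based assay with luminescence read-out, confirmatory dose-response testing for agonist activity of biased ligands at MC4R; human U2OS cells with tagged receptor and beta-arrestin; potency of agonists that increase receptor coupling to beta-arrestin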
[5] = molecular target: T3, Trace amine-associated receptor 1 (Homo sapiens, UniProt Q96RJ0); assay: Counterscreen for agonists of the human trace amine associated receptor 1 (hTAAR1): Fluorescence-based cell-based high throughput dose response assay to identify hTAAR1 agonist that also desensitize TAAR1 receptor response.; format: functional
T3 sequence (Q96RJ0 whole entry): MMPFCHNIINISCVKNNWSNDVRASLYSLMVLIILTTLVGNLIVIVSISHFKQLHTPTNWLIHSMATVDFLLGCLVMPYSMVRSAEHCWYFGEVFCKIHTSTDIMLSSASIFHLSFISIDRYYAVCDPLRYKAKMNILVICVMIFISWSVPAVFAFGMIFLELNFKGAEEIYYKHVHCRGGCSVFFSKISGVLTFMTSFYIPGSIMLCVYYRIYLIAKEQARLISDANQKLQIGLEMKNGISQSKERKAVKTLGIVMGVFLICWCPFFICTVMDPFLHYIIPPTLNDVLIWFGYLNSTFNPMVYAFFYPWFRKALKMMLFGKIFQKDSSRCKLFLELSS

cells [6] = format: functional, cell-based
cells [7] = format: functional, cell-based; remark: listed apart in the source
[8] = molecular target: T3, Trace amine-associated receptor 1; assay: Fluorescence-based cell-based high throughput dose response assay to identify agonists of the human trace amine associated receptor 1 (TAAR1).; format: functional
[9] = HeLa cell cytotoxicity, dose response, cytotoxicity control for MgcRacGAP inhibitor project (AID 624300); format: functional
[10] = molecular target: T4, Rac GTPase-activating protein 1 (Homo sapiens, UniProt Q9H0H5); assay: MgcRacGAP GTPase-activating activity inhibitors, confirmation, biochemical, ADP Hunter fluorescence, primary and confirmatory (AID 624330); format: functional
T4 sequence (Q9H0H5 whole entry): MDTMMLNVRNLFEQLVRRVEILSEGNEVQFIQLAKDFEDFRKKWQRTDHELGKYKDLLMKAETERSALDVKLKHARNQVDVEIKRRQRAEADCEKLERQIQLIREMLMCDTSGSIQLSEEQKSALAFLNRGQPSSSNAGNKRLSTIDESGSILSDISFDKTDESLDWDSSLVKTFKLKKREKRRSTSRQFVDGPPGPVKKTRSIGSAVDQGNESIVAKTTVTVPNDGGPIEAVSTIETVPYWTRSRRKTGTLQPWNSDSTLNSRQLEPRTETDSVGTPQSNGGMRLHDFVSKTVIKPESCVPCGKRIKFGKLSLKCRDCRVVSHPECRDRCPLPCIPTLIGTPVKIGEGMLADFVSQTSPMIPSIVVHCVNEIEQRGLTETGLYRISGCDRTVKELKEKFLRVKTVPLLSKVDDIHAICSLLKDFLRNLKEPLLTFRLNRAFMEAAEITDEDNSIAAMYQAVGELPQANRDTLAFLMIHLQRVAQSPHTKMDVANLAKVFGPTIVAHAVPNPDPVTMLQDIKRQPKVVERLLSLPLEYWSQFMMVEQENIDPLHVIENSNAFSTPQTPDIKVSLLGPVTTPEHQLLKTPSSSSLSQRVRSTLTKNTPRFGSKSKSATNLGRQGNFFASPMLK

H9c2 = assay: cells; format: functional, cell-based; conditions: Rattus norvegicus, H9c2, Myocardium;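 further: confirmatory concentration-response retest of ultra-high-throughput screening hits for modulation of myocardial damage; cell death induced by hydrogen peroxide oxidative stress; compound pretreatment for 60 min then peroxide exposure for 2 h; potency is for protecting the cells against peroxide damage rather than for killing them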

Sequence of Melanocortin receptor 4 (P32245 whole entry): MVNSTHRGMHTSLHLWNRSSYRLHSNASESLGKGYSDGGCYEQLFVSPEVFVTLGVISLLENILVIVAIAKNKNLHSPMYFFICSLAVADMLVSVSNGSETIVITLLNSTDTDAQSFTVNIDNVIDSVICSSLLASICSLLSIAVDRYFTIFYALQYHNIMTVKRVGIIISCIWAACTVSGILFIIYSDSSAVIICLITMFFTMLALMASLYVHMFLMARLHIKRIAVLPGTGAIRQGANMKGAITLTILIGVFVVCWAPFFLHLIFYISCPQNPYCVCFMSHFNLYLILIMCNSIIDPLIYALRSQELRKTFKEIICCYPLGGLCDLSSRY
Sequence of 26S proteasome non-ATPase regulatory subunit 14 (O00487 whole entry): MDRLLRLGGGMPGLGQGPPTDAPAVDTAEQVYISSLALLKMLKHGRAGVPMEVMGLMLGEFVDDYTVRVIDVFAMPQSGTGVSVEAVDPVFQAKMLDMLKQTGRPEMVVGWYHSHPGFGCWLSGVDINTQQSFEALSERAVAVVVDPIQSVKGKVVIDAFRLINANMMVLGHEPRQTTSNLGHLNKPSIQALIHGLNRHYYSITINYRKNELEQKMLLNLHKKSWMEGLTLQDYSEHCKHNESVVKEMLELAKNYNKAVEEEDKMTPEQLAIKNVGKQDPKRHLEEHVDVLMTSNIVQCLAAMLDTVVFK
Sequence of 72 kDa type IV collagenase (P08253 whole entry): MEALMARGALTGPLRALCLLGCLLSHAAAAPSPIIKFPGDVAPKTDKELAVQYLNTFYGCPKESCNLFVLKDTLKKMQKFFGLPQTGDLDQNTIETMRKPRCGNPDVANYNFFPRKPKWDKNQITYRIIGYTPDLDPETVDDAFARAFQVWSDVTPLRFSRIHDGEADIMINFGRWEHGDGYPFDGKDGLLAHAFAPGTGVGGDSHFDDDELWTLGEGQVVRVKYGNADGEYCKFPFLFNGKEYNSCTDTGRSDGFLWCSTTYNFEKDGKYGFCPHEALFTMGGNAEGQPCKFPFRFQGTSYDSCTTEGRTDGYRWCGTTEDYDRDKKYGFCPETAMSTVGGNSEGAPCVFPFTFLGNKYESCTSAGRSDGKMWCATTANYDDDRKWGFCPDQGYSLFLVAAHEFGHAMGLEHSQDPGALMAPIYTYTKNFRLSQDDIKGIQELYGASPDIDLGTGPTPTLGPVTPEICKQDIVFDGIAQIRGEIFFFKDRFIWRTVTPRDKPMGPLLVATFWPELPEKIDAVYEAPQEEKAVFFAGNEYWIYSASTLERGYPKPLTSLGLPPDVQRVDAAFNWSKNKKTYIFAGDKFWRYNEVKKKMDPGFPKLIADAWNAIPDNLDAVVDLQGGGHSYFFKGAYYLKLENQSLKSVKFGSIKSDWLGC

COc1ccc(-c2ccc(/C=C3/C(=N)N4C(C)=CSC4=NC3=O)o2)c([N+](=O)[O-])c1
EC50 [1]: > 99 µM (inactive) | IC50 (Protein skinhead-1): > 100 µM (inactive) | EC50 [2]: 29 µM (inactive)

Cc1ccccc1C(=O)/C=C1/SCC(=O)N1C
IC50 [3]: > 100 µM (inactive) | IC50 [4]: 18.9 µM (active) | IC50 (Prothrombin): 37.3 µM (active)

Cc1cccc(NC(=S)NC(=O)C(c2ccccc2)c2ccccc2)n1
EC50 (Melanocortin receptor 4): > 89.2 µM (inactive)

O=C(Cc1nnc(NC(=O)Nc2ccccc2)s1)Nc1ccccc1
IC50 [5]: > 1.11 µM (active) | EC50 (cells [6]): > 29.9 µM (inactive) | IC50 (cells [7]): > 29.9 µM (inactive) | EC50 [8]: > 0.0015 µM (active)

CN(C)c1ccc(Sc2ccc3nc(N)nc(N)c3c2)cc1
CC50 [9]: 100 µM (active) | IC50 [10]: 50.2 µM (active)

COc1ccc(-c2cc(NC(C)=O)c3ncc(-c4ccc(OC)c(OC)c4)n3c2)cc1OC
EC50 (Melanocortin receptor 4): > 89.2 µM (inactive) | IC50 (H9c2): > 79 µM (inactive)

COc1ccc(-c2cc(C3CCN(CC(O)C(F)(F)F)CC3)[nH]n2)cc1 (stereo not given)
IC50 [5]: 7.6 µM (active) | EC50 (cells [6]): > 29.9 µM (inactive) | IC50 (cells [7]): > 29.9 µM (inactive) | EC50 [8]: 3.52 µM (active)

Cc1cccnc1C(c1ccc(F)cc1)N(C)C(=O)C1CCN(CCOc2ccc(Cl)cc2Cl)CC1 (stereo not given)
EC50 (Melanocortin receptor 4): > 89.2 µM (inactive)
